{
  "source": "patent EP2367539B1",
  "about": "“NOVEL COMPOSITION FOR TREATMENT OF ESSENTIAL THROMBOCYTHEMIA” (AOP Orphan Pharmaceuticals AG, priority 2008, dated 2010)",
  "origin": "cited, not measured here",
  "key": {"PDE 3 [1]": {"tested_on": "PDE 3", "conditions": "compared with anagrelide"}, "PDE 3 [2]": {"tested_on": "PDE 3"}},
  "data": [
    {"molecule": "O=C1NC2=Nc3ccc(Cl)c(Cl)c3CN2C1O", "note": "(centres unmarked) [3-hydroxyanagrelide]", "values": [
      {"measurement": "potency as an inhibitor of PDE 3", "setting": "PDE 3 [1]", "result": "considerably more potent than anagrelide"}
    ]},
    {"molecule": "NC1=Nc2ccc(Cl)c(Cl)c2CN1", "note": "[RL 603, 2-amino-5,6-dichloro-3,4-dihydroquinazolone]", "values": [
      {"measurement": "platelet reduction and PDE 3 inhibitory activity", "setting": "PDE 3 [2]", "result": "lacks these activities"}
    ]}
  ]
}
